Assay results as given in PubChem BioAssay (NCI).
Values joined by “and” are separate entries in the source; they are usually repeats but may differ in a detail not shown here. Equal values may be shown once.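 Compound exposure: 48 hours, 5 concentrations, 96-well plates. Abbreviation: GI50, concentration required for 50% inhibition of growth. At the TGI there is no net growth.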

Legend:
Assay in all cases: inhibition of tumour cell growth, NCI panel, 48 h
[1] = tested on: SK-OV-3 ovarian
[2] = tested on: MALME-3M melanoma
[3] = tested on: OVCAR-4 ovarian
[4] = tested on: A498 renal
[5] = tested on: T-47D breast
[6] = tested on: PC-3 prostate
[7] = tested on: UACC-62 melanoma
[8] = tested on: MDA-MB-231 breast
[9] = tested on: NCI-H460 lung
[10] = tested on: M14 melanoma

Row | Compound | TGI [1] | TGI [2] | TGI [3] | TGI [4] | TGI [5] | TGI [6] | TGI [7] | TGI [8] | TGI [9] | TGI [10] | GI50 [3] | GI50 [4] | GI50 [6] | GI50 [7] | GI50 [9] | GI50 [10]
1 | S=c1ncc(-c2cncc(-c3cnc(=S)[nH]c3)n2)c[nH]1 | > 100 µM | > 100 µM | > 100 µM | > 100 µM | > 100 µM | > 100 µM | > 100 µM | > 100 µM | > 100 µM | > 100 µM | – | – | – | – | – | –
2 | Nc1nc(N)c2nc(CN(C=O)c3ccc(C(=O)O)cc3)cnc2n1 | > 100 µM | > 100 µM | > 100 µM | > 79.9 µM | > 100 µM | > 100 µM | > 100 µM | > 100 µM | > 100 µM | > 100 µM | – | – | – | – | – | –
3 | NC1=Nc2cc(C(F)(F)F)ccc2Sc2nc3ccccc3n21 | > 100 µM | > 100 µM | > 100 µM | > 100 µM | > 100 µM | > 100 µM | > 100 µM | > 100 µM | > 100 µM | > 43.2 µM | – | – | – | – | – | –
4 | CC1(C)N=C(C(N)=O)c2[nH]cnc2N1 | > 100 µM | > 100 µM | > 100 µM | > 100 µM | > 100 µM | > 100 µM | > 100 µM | > 100 µM | > 100 µM | > 100 µM | – | – | – | – | – | –
5 | CN(C)C(=O)C(F)(F)C(c1ccccc1Br)C1C(=O)N(C)C(=O)N(C)C1=O (stereo not drawn) | > 100 µM | > 100 µM | > 100 µM | > 100 µM | > 100 µM | > 100 µM | > 100 µM | > 100 µM | > 100 µM | > 100 µM | – | – | – | – | – | –
6 | CO[C@@]12C[C@H](CNC(=O)c3ccc[nH]3)O[C@@H]1NC(=O)N2 | > 100 µM | > 100 µM | > 100 µM | > 100 µM | > 100 µM | > 100 µM | > 100 µM | > 100 µM | > 100 µM | > 100 µM | – | – | – | – | – | –
7 | COC(=O)c1ccccc1CC1Cc2c(C)ccc(C)c2C1=O (stereo not drawn) | > 100 µM | 57.5 µM | > 100 µM | 71 µM | 87.2 µM | > 100 µM | > 100 µM | > 100 µM | > 100 µM | > 100 µM | – | – | – | – | – | –
8 | c1ccc(C(Oc2noc3ccccc23)c2ccccc2)cc1 | > 100 µM | > 100 µM | > 100 µM | > 100 µM | 23.1 µM | > 100 µM | > 100 µM | > 100 µM | > 100 µM | 63.5 µM | – | – | – | – | – | –
9 | CC(C)=CCC[C@@H](C)C1=C(O)C(N[C@H](C)c2ccccc2)=C(C)C(=O)C1=O | 45.4 µM | 14.6 µM | > 60.1 µM | 32 µM | 24.8 µM | > 100 µM | 9.71 µM | 35.6 µM | > 40 µM | > 31.7 µM | – | – | – | – | – | –
10 | Clc1ccc(-c2cn3c(nc4ccccc43)c(-c3ccccc3)n2)cc1 | 26.5 µM | > 63.7 µM | 25.2 µM | 54 µM | > 75.5 µM | 47 µM | 26.7 µM | > 100 µM | > 57.4 µM | > 87.4 µM | – | – | – | – | – | –
11 | CN(CCN)[C@H](CSSC[C@@H](c1ccccc1O)N(C)CCN)c1ccccc1O | 25 µM | 33.3 µM | 34 µM | 39.2 µM | 48.3 µM | 30.2 µM | 24.5 µM | 26.5 µM | 24.4 µM | 33.5 µM | – | – | – | – | – | –
12 | NC(=S)NNCC(=O)CC(O)(C(F)(F)F)C(F)(F)Cl (stereo not drawn) | > 100 µM | > 100 µM | > 100 µM | > 100 µM | > 100 µM | > 100 µM | > 100 µM | > 100 µM | > 100 µM | > 100 µM | – | – | – | – | – | –
13 | COC(=O)c1ccccc1C1CN=NC12Cc1ccc(C)cc1C2=O (stereo not drawn) | > 100 µM | > 100 µM | > 100 µM | > 100 µM | > 100 µM | > 100 µM | > 100 µM | > 100 µM | > 100 µM | > 100 µM | – | – | – | – | – | –
14 | OCCc1ccsc1-c1sc(-c2cc(CCO)c(-c3sc(-c4cc(CCO)c(-c5sccc5CCO)s4)cc3CCO)s2)cc1CCO | 3.11 µM | 2.36 µM | 2.52 µM | 3.65 µM | 3.56 µM | 2.67 µM | 3.41 µM | 11.9 µM | 2.95 µM | 3.36 µM | – | – | – | – | – | –
15 | CCOC(=O)[C@@]12C[C@](/C=C/OC)(O[Si](C)(C)C)[C@@]13c1cc(OC)c(OC)cc1CCN3C(=O)C2=O | > 100 µM | > 100 µM | > 100 µM | > 100 µM | > 100 µM | > 100 µM | > 100 µM | > 100 µM | > 100 µM | > 100 µM | – | – | – | – | – | –
16 | CN(C(=O)Cc1ccccc1)n1cn[n+](CC(=O)OC(C)(C)C)c1 | > 10 µM | > 10 µM | > 10 µM | > 10 µM | > 10 µM | > 10 µM | > 10 µM | > 10 µM | > 10 µM | > 10 µM | – | – | – | – | – | –
17 | COC(=O)/C=C(C)/C=C\COC1CCCCO1 (stereo not drawn) | > 100 µM | > 100 µM | > 100 µM | > 100 µM | > 100 µM | > 100 µM | > 100 µM | > 100 µM | > 100 µM | > 100 µM | – | – | – | – | – | –

Row | Compound | TGI [1] | TGI [2] | TGI [3] | TGI [4] | TGI [5] | TGI [6] | TGI [7] | TGI [8] | TGI [9] | TGI [10] | GI50 [3] | GI50 [4] | GI50 [6] | GI50 [7] | GI50 [9] | GI50 [10]
18 | O=C1c2cc3c(cc2NC(c2ccccc2F)C1O)OCO3 (stereo not drawn) | 51.1 µM | > 100 µM | > 84.9 µM | 58.1 µM | > 100 µM | > 100 µM | 64 µM | > 76.2 µM | > 100 µM | > 100 µM | – | – | – | – | – | –
19 | CC(=O)O[C@H]1[C@@H](N2CCOCC2)C[C@H]2[C@@H]3CC=C4C[C@@H](N5CCCC5)CC[C@]4(C)[C@H]3CC[C@@]21C | > 100 µM | > 100 µM | > 100 µM | > 100 µM | > 100 µM | > 100 µM | > 100 µM | > 100 µM | > 100 µM | > 100 µM | – | – | – | – | – | –
20 | CC(=O)OCC1OC(OCCCOP(=O)(OCCC#N)OCC2OC(n3cnc4c(N)ncnc43)C(OC(=O)c3ccccc3)C2OC(=O)c2ccccc2)C(OC(C)=O)C(OC(C)=O)C1OC(C)=O (stereo not drawn) | > 100 µM | 5.53 µM | > 100 µM | > 100 µM | > 100 µM | > 100 µM | > 100 µM | > 100 µM | > 100 µM | > 100 µM | – | – | – | – | – | –
21 | Cc1ccc(/C=c2\cc3oc(=O)c4cccc(c4-3)c2=O)cc1 | > 100 µM | > 100 µM | > 100 µM | > 100 µM | > 100 µM | > 100 µM | > 100 µM | > 100 µM | > 100 µM | > 100 µM | – | – | – | – | – | –
22 | Cc1nn2c(=O)c([N+](=O)[O-])c(/C=C/c3ccc(F)cc3)nc2s1 | > 31.6 µM | 16.7 µM | 19.5 µM | 35.6 µM | 19.3 µM | 22 µM | 17.5 µM | 26.8 µM | 22.9 µM | 16.4 µM | – | – | – | – | – | –
23 | CSc1c(C(C)=O)c(O)n(-c2ccc(C)cc2)c(=O)c1C#N | > 100 µM | > 100 µM | > 100 µM | > 100 µM | > 100 µM | > 100 µM | > 100 µM | > 100 µM | > 100 µM | > 100 µM | – | – | – | – | – | –
24 | O=c1cc(NNc2cccc3ccccc23)[nH]c(=O)[nH]1 | 88.6 µM | 31.8 µM | 31.2 µM | 35.7 µM | 29.6 µM | 27 µM | 31.8 µM | 26.2 µM | 43.5 µM | 29.8 µM | – | – | – | – | – | –
25 | CCCC(=O)Nc1cc(C(=O)N2C[C@H]3C[C@@]34C2=CC(=O)c2[nH]cc(C)c24)n(COC)c1 | 5.36 µM | 0.439 µM | 4.76 µM and 0.626 µM | 1.7 µM and 0.758 µM | 1.49 µM | – | 0.911 µM and 0.289 µM | 3 µM | – | – | 0.239 µM | 0.22 µM | 0.147 µM | 0.144 µM | 0.135 µM | 0.167 µM
26 | COc1cc(/C=C(\C)[N+](=O)[O-])cc(OC)c1 | > 100 µM | 29.4 µM | 33.5 µM | 25 µM | 16.3 µM | 34.8 µM | 28.7 µM | 31 µM | 39.5 µM | 28.2 µM | – | – | – | – | – | –
27 | COC(=O)[C@@H]1c2c(oc3cc(CO)cc(O)c3c2=O)C=C[C@H]1O | 35.4 µM | 4.91 µM | 12 µM | 20 µM | 9.4 µM | 20.1 µM | 25 µM | 27.5 µM | 34 µM | 19.8 µM | – | – | – | – | – | –
28 | O=C(/C=C/c1ccc(OCc2ccccc2)cc1)NCc1ccc(C(=O)NCCc2ccccc2)cc1 | > 100 µM | > 100 µM | > 100 µM | > 100 µM | > 100 µM | > 100 µM | > 100 µM | > 100 µM | > 100 µM | > 100 µM | – | – | – | – | – | –
29 | Cc1ccc(C2=CC(=O)/C(=C\C(=O)c3ccc(Br)cc3)O2)c(C)c1 | 29 µM | 21.3 µM | 23.9 µM | 39.4 µM | 43.1 µM | 11.6 µM | 22.7 µM | 26.8 µM | 69.2 µM | 35.3 µM | – | – | – | – | – | –
30 | Cc1nc2ccc(NCCN(C)C)c3c(=O)c4ccccc4n1c23 | 36.7 µM | 18.5 µM | 6.82 µM | 12.1 µM | 39.7 µM | 8.8 µM | 20.2 µM | 5.8 µM | 10.8 µM | 16.4 µM | – | – | – | – | – | –
31 | O=C(NNC(=O)c1ccco1)c1ccco1 | > 100 µM | > 100 µM | > 100 µM | > 100 µM | > 100 µM | > 100 µM | > 100 µM | > 100 µM | > 100 µM | > 100 µM | – | – | – | – | – | –
32 | O=C(O)CN1C(=O)c2ccc(NC(=O)C(=O)O)cc2S1(=O)=O | > 100 µM | > 100 µM | > 100 µM | > 100 µM | > 100 µM | > 100 µM | > 100 µM | > 100 µM | > 100 µM | > 100 µM | – | – | – | – | – | –
33 | CC(=O)c1csc2c1C(=O)c1ccccc1C2=O | > 100 µM | 1.7 µM | 18.3 µM | > 100 µM | 50.8 µM | > 100 µM | 3.73 µM | > 62.9 µM | 5 µM | 2.65 µM | – | – | – | – | – | –
